Consider 17 compounds from ChEMBL document CHEMBL2412999, “Anticonvulsant properties of histamine H3 receptor ligands belonging to N-substituted carbamates of imidazopropanol” (Bioorg Med Chem Lett, 2013).

Test [1] deals with Rattus norvegicus. Briefly: Anticonvulsant activity in Wistar rat assessed as protection against maximum electric shock-induced tonic hind limb extension at 10 to 15 mg/kg, ip. Format: functional, organism-based. Particulars: Hindlimb.
The target of another test is Histamine H3 receptor (Homo sapiens, UniProt Q9Y5N1). The experiment in a line: Displacement of [125I]iodoproxyfan from human histamine H3 receptor expressed in CHO-K1 cells. Format: cell-based. In general terms: Loss of bound radioactivity is the signal in a displacement assay; it reports binding, not function.
Sequence of Histamine H3 receptor (Q9Y5N1 whole entry): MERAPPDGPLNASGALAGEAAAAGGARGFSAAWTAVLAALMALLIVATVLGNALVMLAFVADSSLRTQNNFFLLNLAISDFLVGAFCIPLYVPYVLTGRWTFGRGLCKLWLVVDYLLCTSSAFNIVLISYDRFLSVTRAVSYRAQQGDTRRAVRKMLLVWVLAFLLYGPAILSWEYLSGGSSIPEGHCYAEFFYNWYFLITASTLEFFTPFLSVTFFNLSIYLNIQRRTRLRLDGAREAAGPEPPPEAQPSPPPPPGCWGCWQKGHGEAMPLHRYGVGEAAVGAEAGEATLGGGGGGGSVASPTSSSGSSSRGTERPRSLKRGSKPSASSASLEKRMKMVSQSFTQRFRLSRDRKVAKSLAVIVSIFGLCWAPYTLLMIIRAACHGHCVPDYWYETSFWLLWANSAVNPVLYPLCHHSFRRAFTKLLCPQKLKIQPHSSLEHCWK
The next test deals with Mus musculus. Briefly: In vivo inhibition of histamine H3 receptor in po dosed mouse assessed as Nt-methylhistamine level in brain. Format: functional.
Test [2] deals with Rattus norvegicus. Briefly: Anticonvulsant activity in Wistar rat assessed as protection against maximum electric shock-induced tonic hind limb extension at 10 mg/kg, ip. Format: functional, organism-based. On the set-up: dose 10 mg/kg. The following applies: Hindlimb.
A further test addresses Histamine H4 receptor (Homo sapiens, UniProt Q9H3N8). Briefly: Displacement of [3H]histamine from human histamine H4 receptor expressed in Sf9 cells co-expressing Gai2 and Gb1c2 subunit.
Test [3] has as its target Histamine H2 receptor (Cavia porcellus) (UniProt P47747). The experiment in a line: Antagonist activity at histamine H2 receptor in guinea pig atrium. The following applies: Cardiac atrium.
Test [4] addresses Histamine H1 receptor (Cavia porcellus) (UniProt P31389). Briefly: Antagonist activity at histamine H1 receptor in guinea pig ileum. Format: tissue-based.
Test [5] relates to Rattus norvegicus. Briefly: Anticonvulsant activity in Wistar rat assessed as protection against pentylenetetrazole-induced seizure at 10 mg/kg, ip after 5 to 10 mins. Format: functional, organism-based. More on the design: dose 10 mg/kg.
In test [6] the test system is Rattus norvegicus. The experiment in a line: Anticonvulsant activity in Wistar rat assessed as protection against maximum electric shock-induced tonic hind limb extension at 10 mg/kg, ip in presence of histamine H3R agonist RAMH. Format: functional, organism-based. More on the design: dose 10 mg/kg. The following applies: Hindlimb.
Test [7] relates to Rattus norvegicus. The experiment in a line: Anticonvulsant activity in Wistar rat assessed as protection against maximum electric shock-induced tonic hind limb extension at 15 mg/kg, ip. Format: functional, organism-based. Particulars: Hindlimb. On the set-up: dose 15 mg/kg.
Test [8] deals with Rattus norvegicus. Briefly: Anticonvulsant activity in ip dosed Wistar rat assessed as protection against maximum electric shock-induced tonic hind limb extension. Format: functional, organism-based. Particulars: Hindlimb.
Test [9] relates to Rattus norvegicus. Briefly: Anticonvulsant activity in Wistar rat assessed as protection against maximum electric shock-induced tonic hind limb extension at 10 mg/kg, ip in presence of histamine H1R antagonist pyrilamine. Format: functional, organism-based. On the set-up: dose 10 mg/kg. Particulars: Hindlimb.
The subject of test [10] is Rattus norvegicus. The experiment in a line: Anticonvulsant activity in Wistar rat assessed as protection against maximum electric shock-induced tonic hind limb extension at 5 mg/kg, ip. Format: functional, organism-based. More on the design: dose 5 mg/kg. The following applies: Hindlimb.
Test [11] concerns Rattus norvegicus. Briefly: Anticonvulsant activity in Wistar rat assessed as protection against pentylenetetrazole-induced seizure at 10 mg/kg, ip after 30 mins. Format: functional, organism-based. On the set-up: dose 10 mg/kg.

SMILES strings stand for the structures. Activity calls are given as the source filed them. No cut-off for these calls is given here.

Sequence of Histamine H1 receptor (Cavia porcellus) (P31389 whole entry): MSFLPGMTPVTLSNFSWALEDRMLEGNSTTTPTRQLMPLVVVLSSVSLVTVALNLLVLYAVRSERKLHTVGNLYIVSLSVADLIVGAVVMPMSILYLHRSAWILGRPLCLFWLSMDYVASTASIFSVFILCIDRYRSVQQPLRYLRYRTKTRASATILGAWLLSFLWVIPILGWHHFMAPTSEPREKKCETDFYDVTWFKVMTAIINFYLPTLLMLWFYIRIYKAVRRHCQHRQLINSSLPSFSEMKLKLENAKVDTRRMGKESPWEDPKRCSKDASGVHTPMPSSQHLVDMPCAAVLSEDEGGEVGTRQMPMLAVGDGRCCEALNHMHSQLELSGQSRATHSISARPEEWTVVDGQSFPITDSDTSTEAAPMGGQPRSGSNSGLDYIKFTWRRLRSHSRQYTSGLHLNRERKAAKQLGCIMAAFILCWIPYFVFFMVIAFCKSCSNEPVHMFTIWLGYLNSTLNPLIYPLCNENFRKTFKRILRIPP
Sequence of Histamine H4 receptor (Q9H3N8 whole entry): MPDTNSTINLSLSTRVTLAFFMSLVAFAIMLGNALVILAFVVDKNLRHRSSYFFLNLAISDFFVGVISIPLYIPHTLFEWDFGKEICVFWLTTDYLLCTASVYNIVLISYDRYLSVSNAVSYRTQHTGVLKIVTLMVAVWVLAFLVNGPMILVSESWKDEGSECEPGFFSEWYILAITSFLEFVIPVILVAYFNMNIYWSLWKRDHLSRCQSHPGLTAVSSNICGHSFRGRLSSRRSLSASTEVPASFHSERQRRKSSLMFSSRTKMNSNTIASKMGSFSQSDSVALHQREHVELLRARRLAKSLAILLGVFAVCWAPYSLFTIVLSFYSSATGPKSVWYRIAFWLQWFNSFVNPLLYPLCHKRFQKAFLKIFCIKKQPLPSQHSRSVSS
Sequence of Histamine H2 receptor (Cavia porcellus) (P47747 whole entry): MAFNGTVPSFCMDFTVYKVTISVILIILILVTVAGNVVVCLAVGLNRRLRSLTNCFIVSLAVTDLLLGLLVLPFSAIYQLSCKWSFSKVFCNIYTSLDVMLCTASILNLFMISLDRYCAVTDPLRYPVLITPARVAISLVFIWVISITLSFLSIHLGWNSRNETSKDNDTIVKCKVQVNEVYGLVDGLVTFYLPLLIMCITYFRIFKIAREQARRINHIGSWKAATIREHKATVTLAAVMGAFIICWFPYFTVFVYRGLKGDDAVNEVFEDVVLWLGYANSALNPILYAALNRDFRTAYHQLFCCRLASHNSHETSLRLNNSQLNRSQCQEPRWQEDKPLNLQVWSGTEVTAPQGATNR

As for `CCC(C)CCNC(=O)OCCCc1c[nH]cn1` (stereo not drawn), the result with Rattus norvegicus [1] and in the test on Rattus norvegicus [2] was Active. In addition, the results for the Ki on Histamine H3 receptor and on Histamine H4 receptor were 129 nM and 1230 nM, respectively. In addition, the 50% effective dose (ED50) (usually the midpoint of the dose-response relation) with Mus musculus was determined as 2 mg/kg.
Consider `S=C(NC1CCCCC1)N1CCC(c2cnc[nH]2)CC1`, for which the outcome in the test on Rattus norvegicus [2] was Active. Also, the pKb in [3] and in test [4] was less than 5 in each case.
For the compound `O=C(NCCCCC1CCCCC1)OCCCc1c[nH]cn1`, the result with Rattus norvegicus [1] and in the test with Rattus norvegicus [2] was Active. Further, the Ki (commonly a dissociation constant, usually derived from enzyme kinetics or from competition with a known ligand) is 1950 nM on Histamine H3 receptor and 5010 nM on Histamine H4 receptor. In addition, the pKb – broadly, the negative decadic logarithm of the Kb, by convention in mol/L – in [3] is 4.61; in test [4], less than 5.52.
Consider `O=C(NCCCCOc1ccccc1)OCCCc1c[nH]cn1`, for which the Ki at Histamine H3 receptor is 1050 nM; on Histamine H4 receptor, greater than 100000 nM. In addition, the ED50 in the test on Mus musculus came to 5.8 mg/kg. Moreover, the pKb in test [3] came out at 4.78; in test [4], 4.27.
As for `COc1ccc(CN(CCN(C)C)c2ccccn2)cc1`, the result in the test on Rattus norvegicus [2] was inactive.
Regarding `CCC/C=C/CNC(=O)OCCCc1c[nH]cn1`, the Ki is 240 nM on Histamine H3 receptor and 7080 nM at Histamine H4 receptor. Further, the outcome with Rattus norvegicus [2] was Active.
On to `O=C(NCCC1CC1)OCCCc1c[nH]cn1`, for which the Ki at Histamine H3 receptor was 170 nM; on Histamine H4 receptor, 1550 nM. Besides, the pKb in test [3] turned out to be 3.5; in test [4], 3.8.
Turning to `CC/C=C/CCNC(=O)OCCCc1c[nH]cn1`, the figures for the Ki on Histamine H3 receptor and on Histamine H4 receptor were 257 nM and 13200 nM, respectively.
As to `O=C(NCCc1ccc(Cl)cc1)OCCCc1c[nH]cn1`, the Ki is 427 nM on Histamine H3 receptor and 6760 nM at Histamine H4 receptor. The ED50 in the test with Mus musculus is 3.1 mg/kg. For the same compound, the results for the pKb in test [3] and in test [4] were 4.41 and 4.82, respectively.
Take `O=C(NCCCOc1ccccc1)OCCCc1c[nH]cn1`: the Ki on Histamine H3 receptor is 1290 nM; on Histamine H4 receptor, greater than 100000 nM. The ED50 in the test on Mus musculus worked out at 4.1 mg/kg. Besides, in the test with Rattus norvegicus [2], the result was Active. Also, the results for the pKb in [3] and in test [4] were 4.26 and 4.34, respectively.
As to `C[C@@H](N)Cc1c[nH]cn1`, the result in the test on Rattus norvegicus [2] was inactive.
Regarding `O=C(NCCCC1CCCCC1)OCCCc1c[nH]cn1`, the Ki on Histamine H3 receptor was 851 nM; at Histamine H4 receptor, 4470 nM. Also, the pKb in test [3] was 4.94; in test [4], 4.97.
The like results for `O=C(NCCC1CCCCC1)OCCCc1c[nH]cn1` were, in that order, 251 nM, 1550 nM, 4.49 and 3.96.
Take `C=CCCNC(=O)OCCCc1c[nH]cn1`: the outcome in the test on Rattus norvegicus [1] and with Rattus norvegicus [2] was Active. Besides, on Histamine H4 receptor, the Ki was 3800 nM. The pKb in test [3] and in test [4] was less than 4 in each case.
On to `C=CCCCNC(=O)OCCCc1c[nH]cn1`, for which the Ki at Histamine H3 receptor was 141 nM; at Histamine H4 receptor, 41700 nM. Also, the result in the test with Rattus norvegicus [5], with Rattus norvegicus [2], in the test with Rattus norvegicus [7] and in the test with Rattus norvegicus [10] was Active. For the same compound, the outcome in the test on Rattus norvegicus [6] and in the test on Rattus norvegicus [9] was inactive. In addition, the Activity entry in the test on Rattus norvegicus [8] is “Dose-dependent effect”. Further, the pKb in test [3] came to 3.6; in test [4], 3.9.
Consider `O=C(NCCOc1ccccc1Cl)OCCCc1c[nH]cn1`, for which the Ki on Histamine H3 receptor was 708 nM; at Histamine H4 receptor, 16200 nM. Also, in the test with Mus musculus, the ED50 came out at 2.2 mg/kg. In addition, the result in the test with Rattus norvegicus [2] was Active.
Consider `O=C1NC(=O)C(c2ccccc2)(c2ccccc2)N1`, for which the result in the test with Rattus norvegicus [1], with Rattus norvegicus [11] and in the test with Rattus norvegicus [2] was Active. Besides, the outcome in the test on Rattus norvegicus [10] was inactive.
